From US20240350579A1 (priority 2020, published 2024)

Key:
[1] = Net peptide charge and isoelectric point; type: physicochemical; settings: pH 7
Text: The peptide may be purified. For example, the peptide may be lyophilized. […] Other peptides are within the scope of the disclosure.
Exemplary peptides having a charge of +5 to +9 include […](d)[…], […](d)[…], and […](d)[…]. In other embodiments, the purified peptide may be substantially neutral. […] Net charge may be selected by peptide design. Design of electrostatic charge in the peptide hydrogel may allow control of charge interaction with cell membrane and proteins.

[2] = test system: P. aeruginosa; test: Antibacterial assay of PEPXR hydrogels; type: cell-based
Text: (§1) Thus, the peptide hydrogels described herein may generally comprise a high content of positively charged arginine (R) amino acids.
The peptide hydrogel is believed to directly lyse bacterial membranes indiscriminately. […] The mechanism additionally makes it more difficult for the treated microorganisms to gain antibiotic resistance.

[3] = test system: S. aureus; test: Antibacterial assay of PEPXR hydrogels; type: cell-based
Text: as §1

[4] = test system: E. coli; test: Antibacterial assay of PEPXR hydrogels; type: cell-based
Text: as §1

| Substance | net charge [1] | antimicrobial activity (in words) [2] | antimicrobial activity (in words) [3] | antimicrobial activity (in words) [4] |
| --- | --- | --- | --- | --- |
| VEVSVSVEV(d)PPTEVSVEVEV | net negative charge | – | – | – |
| VKVRVRVRVPPTRVRVRVKV [PEP6R] | – | potent antimicrobial activity | potent antimicrobial activity | potent antimicrobial activity |
